From patent US8633356B2, “Method for controlling root parasitic plants” (Riken, priority 2008, dated 2014)

Assays:
S. hermonthica seeds = test: Germination assay using S. hermonthica seeds; type: in vivo, Striga hermonthica; details: positive control, 10^−7 M (FIG. 2f)
Text: The levels of strigolactones released to hydroponic culture media were estimated by germination stimulating activity using S. hermonthica seeds as described previously ^32 Strigolactones were identified and quantified on LC-MS/MS by comparing the retention time and full-scan spectrum with those of authentic standards. We synthesized deuterium-labeled epi-5DS (d1-epi-5DS) and used as an internal standard for quantitative analysis using LC-MS/MS. Germination assays using S. hermonthica were performed as described previously^32 For each bioassay, de-ionized water and (+)-strigol solution were used as negative and positive controls, respectively.

[1] = tested on: tiller bud outgrowth of rice
Method: Rice and Arabidopsis seeds were surface-sterilized and the seedlings were first grown aseptically on agar media. Plants were then grown hydroponically in growth chambers. For both rice and Arabidopsis, strigolactones were added to the hydroponic culture medium.
We used rice normal cultivars (Oryza sativa L. cv. Shiokari and cv. Nipponbare) and tillering dwarf mutants (FIG. 6) in this study. Rice seeds were washed in 70% ethanol for 30 sec, sterilized in 2.5% sodium hypochlorite solution for 15 min, rinsed with sterile water, and then imbibed at 28° C. in the dark for 2 days. Germinated seeds were transferred into hydroponic culture media^39 solidified with 0.6% agar (pH5.7) and cultured at 25° C. under fluorescence white light (150-200 μmol m^−2 s^−1) with a 16 h light/8 h dark photoperiod for 5 days. Each seedling was then transferred to a glass vial containing a sterilized hydroponic culture solution (13 ml), fixed with a piece of sponge at the root-shoot junction to the top of the vial, and grown under the same condition for additional 7 days (total 2 weeks). The hydroponic solution was supplemented every 3 days. For large-scale cultures, the 2-weeks-old seedlings were transferred into a 4-L porcelain pot containing the same hydroponic solution and grown under the same condition. After the transfer to pots, the solution was renewed weekly.
To further investigate the relationships between the D10/D17-derived branching inhibitor and strigolactones, we examined the effect of strigolactone treatment on rice d mutants.

D10 transcript = test: qRT-PCR of D10 transcript levels in rice roots; type: in vivo, Oryza sativa; details: roots of 8-day-old seedlings, 1 μM (+)-GR24 for 24 h (FIG. 3h)
Method: We performed quantitative reverse transcription-PCR (qRT-PCR) to determine D10 transcript levels, according to the method described before^38. Total RNA was extracted from roots using RNeasy Maxi kit (Qiagen). qRT-PCR was carried out to determine D10 transcript levels using gene specific primers and a Taq-Man probe (Table 1 as describe above). Ubiquitin expression was used as an internal standard.

[2] = tested on: axillary bud outgrowth of Arabidopsis; test: Axillary bud outgrowth (shoot branching) of Arabidopsis in hydroponic culture; type: in vivo, Arabidopsis thaliana; details: 5 μM in the hydroponic culture media
Method: Plants were then grown hydroponically in growth chambers. […] We used Arabidopsis thaliana ecotype Col-0 as the wild type and max mutants (FIG. 6). Seeds were sterilized in 1% sodium hypochlorite solution for 5 min, rinsed with sterile water, and stratified for one day at 4° C. […] Plants were then transferred to a glass pot containing 400 ml hydroponic solution^41 and grown under the same environmental condition for additional 15 days. The solution was renewed every 3 days. To measure germination stimulants, sterilized and stratified seeds were placed on glass beads (30 ml) wetted with 1/10 strength MS liquid media (10 ml) in a Petri dish (9 cm diameter) and grown for 14 days under the same conditions above. The culture media were collected and subjected to S. hermonthica germination assay.

Row | plant height of wild type seedlings ([1]; in vivo) | Structure (SMILES) | germination of S. hermonthica seeds (S. hermonthica seeds) | tiller bud outgrowth at 1 μM ([1]; 1 μM, 2-week-old d10-1 and d17-1 seedlings) | lowest concentration at which the inhibitory effect on tiller bud outgrowth was detectable ([1]; 2-week-old d10-1 and d17-1 seedlings) [nM] | inhibition of tiller bud outgrowth ([1]; 2-week-old d10-1 and d17-1 seedlings, compound applied to the media) | effect on d3-1 mutant plants ([1]; 6-week-old d3-1, 2 μM in the culture media) | branching phenotype and plant height of d10-1 mutant ([1]; 6-week-old d10-1, 2 μM in the culture media) | sensitivity of tiller bud outgrowth of the d3-1 mutant ([1]; d3-1 mutant seedlings (defective in probable signaling component)) | morphological abnormalities in wild type seedlings after treatment ([1]; in vivo) | D10 transcript levels in d10-1 and wild type seedlings (D10 transcript) | sensitivity of branching of max2 mutants [2] | enhanced branching phenotype of max3 and max4 mutants ([2]; 30-day-old plants)
1 | – | CC1=C[C@H](O/C=C2/C(=O)O[C@@H]3C4=C(C[C@H]23)[C@@H](O)CCC4(C)C)OC1=O [(+)-strigol, (+)-Strigol] | germination induced | – | – | – | – | – | – | – | – | – | –
2 | did not change the plant height | CC1=C[C@H](O/C=C2/C(=O)O[C@@H]3c4ccccc4C[C@H]23)OC1=O [GR24] | – | nearly fully inhibited | 10 | inhibited tiller bud outgrowth of 2-week-old d10-1 and d17-1 seedlings in a dose-dependent manner | no visible effect | complemented | insensitive | No morphological abnormalities were evident | decreased | insensitive | rescued
